# Test results from patent publication US4251546A, “Process for killing internal helminths using certain 1,1-bis-(2-substituted-3-nitrophenyl)alkane or alkylene derivatives” (ICI Australia Limited, priority 1977, dated 1981).
# How the values were obtained:
# [1] = tested on: sheep liver fluke (Fasciola hepatica); test: Fluke egg count in faeces and adult fluke count in liver of infected sheep after a single s/c dose (Table 3); assay type: in vivo; conditions: for POST MORTEM RESULT No. of adult fluke: liver
# Method: Compositions suitable for use as experimental injectable solutions were prepared by formulating the compounds as solutions of their salts either in water or in a mixture of water and ethylene glycol or water and polyethylene glycol (PEG200).
# Compositions prepared by the method of Example 10 were used as a single dose to test sheep infected with sheep liver fluke (Fasciola hepatica). The number of liver fluke eggs in the faeces was measured at the time of treatment and at selected intervals up to 30 days after treatment. The sheep were killed and the number of adult fluke in the liver counted. The amount and structure of the active ingredient in each composition and the results of treatment of a sheep with that composition are given in the Table 3 below. The compositions were administered by sub-cutaneous injection (s/c).
# live Fasciola hepatica = test: Minimum effective concentration against live Fasciola hepatica in Hedon-Fleig medium (Table 4); conditions: in vitro, assessed 24 hours after treatment, read-out: MINIMUM EFFECTIVE CONCENTRATION (minimum concentration required to kill Fasciola hepatica)
# Method: The minimum effective concentration of compounds of formula I against live Fasciola hepatica was tested by the direct application of the test compound, in solution, to live Fasciola hepatica in Hedon-Fleig medium. The results are given in Table 4 where the minimum effective concentration (minimum concentration required to kill Fasciola hepatica) was assessed 24 hours after treatment with the test compound.
smiles,measurement,setting,value
O=[N+]([O-])c1cc(Cl)cc(Cc2cc(Cl)cc([N+](=O)[O-])c2O)c1O [Compound 1],"FAECAL EGG COUNT, day 7",[1]; single dose 12.5 mg/kg,0 Eggs/g faeces
same,"FAECAL EGG COUNT, day 14",[1]; single dose 12.5 mg/kg,50 Eggs/g faeces
same,"FAECAL EGG COUNT, day 30","[1]; single dose 12.5 mg/kg, day 30",0 Eggs/g faeces
same,POST MORTEM RESULT No. of adult fluke,[1]; single dose 12.5 mg/kg,0
O=[N+]([O-])c1cc(Cl)cc(Cc2cc(Br)cc([N+](=O)[O-])c2O)c1O [Compound 3],"FAECAL EGG COUNT, day 7",[1]; single dose 12.5 mg/kg,0 Eggs/g faeces
same,"FAECAL EGG COUNT, day 14",[1]; single dose 12.5 mg/kg,0 Eggs/g faeces
same,POST MORTEM RESULT No. of adult fluke,[1]; single dose 12.5 mg/kg,1
CC(c1cc(Cl)cc([N+](=O)[O-])c1O)c1cc(Cl)cc([N+](=O)[O-])c1O [Compound 7],"FAECAL EGG COUNT, day 7",[1]; single dose 5.0 mg/kg,0 Eggs/g faeces
same,"FAECAL EGG COUNT, day 14",[1]; single dose 5.0 mg/kg,50 Eggs/g faeces
same,"FAECAL EGG COUNT, day 7",[1]; single dose 8.0 mg/kg,0 Eggs/g faeces
same,"FAECAL EGG COUNT, day 14",[1]; single dose 8.0 mg/kg,0 Eggs/g faeces
same,POST MORTEM RESULT No. of adult fluke,[1]; single dose 8.0 mg/kg,0
same,"FAECAL EGG COUNT, day 7",[1]; single dose 12.5 mg/kg,20 Eggs/g faeces
same,"FAECAL EGG COUNT, day 14",[1]; single dose 12.5 mg/kg,0 Eggs/g faeces
same,POST MORTEM RESULT No. of adult fluke,[1]; single dose 12.5 mg/kg,0
same,"FAECAL EGG COUNT, day 7",[1]; single dose 20.0 mg/kg,0 Eggs/g faeces
same,"FAECAL EGG COUNT, day 13","[1]; single dose 20.0 mg/kg, day 13",0 Eggs/g faeces
same,POST MORTEM RESULT No. of adult fluke,[1]; single dose 20.0 mg/kg,0
"CC(c1cc(Cl)cc([N+](=O)[O-])c1O)c1cc(Br)cc([N+](=O)[O-])c1O (stereo not shown) [Compound 8, 1-(5-Bromo-2-hydroxy-3-nitrophenyl)-1-(5-chloro-2-hydroxy-3-nitrophenyl)ethane]","FAECAL EGG COUNT, day 7",[1]; single dose 4.0 mg/kg,110 Eggs/g faeces
same,"FAECAL EGG COUNT, day 14",[1]; single dose 4.0 mg/kg,80 Eggs/g faeces
same,"FAECAL EGG COUNT, day 7",[1]; single dose 6.0 mg/kg,20 Eggs/g faeces
same,"FAECAL EGG COUNT, day 14",[1]; single dose 6.0 mg/kg,10 Eggs/g faeces
same,POST MORTEM RESULT No. of adult fluke,[1]; single dose 6.0 mg/kg,0
same,"FAECAL EGG COUNT, day 7",[1]; single dose 8.0 mg/kg,0 Eggs/g faeces
same,"FAECAL EGG COUNT, day 14",[1]; single dose 8.0 mg/kg,0 Eggs/g faeces
same,POST MORTEM RESULT No. of adult fluke,[1]; single dose 8.0 mg/kg,0
same,"FAECAL EGG COUNT, day 7",[1]; single dose 12.5 mg/kg,0 Eggs/g faeces
same,"FAECAL EGG COUNT, day 14",[1]; single dose 12.5 mg/kg,0 Eggs/g faeces
same,POST MORTEM RESULT No. of adult fluke,[1]; single dose 12.5 mg/kg,0
CC(c1cc(Br)cc([N+](=O)[O-])c1O)c1cc(Br)cc([N+](=O)[O-])c1O [Compound 9],"FAECAL EGG COUNT, day 7",[1]; single dose 12.5 mg/kg,0 Eggs/g faeces
same,"FAECAL EGG COUNT, day 14",[1]; single dose 12.5 mg/kg,0 Eggs/g faeces
same,POST MORTEM RESULT No. of adult fluke,[1]; single dose 12.5 mg/kg,0
CC(c1cc(Br)cc([N+](=O)[O-])c1O)c1cc(I)cc([N+](=O)[O-])c1O (stereo not shown) [Compound 10],"FAECAL EGG COUNT, day 7",[1]; single dose 12.5 mg/kg,10 Eggs/g faeces
same,"FAECAL EGG COUNT, day 14",[1]; single dose 12.5 mg/kg,90 Eggs/g faeces
O=[N+]([O-])c1cc(Cl)cc(C(c2cc(Cl)cc([N+](=O)[O-])c2O)C(Cl)(Cl)Cl)c1O [Compound 11],"FAECAL EGG COUNT, day 7",[1]; single dose 5.0 mg/kg,50 Eggs/g faeces
same,"FAECAL EGG COUNT, day 14",[1]; single dose 5.0 mg/kg,0 Eggs/g faeces
same,POST MORTEM RESULT No. of adult fluke,[1]; single dose 5.0 mg/kg,0
O=[N+]([O-])c1cc(F)cc(C(=C(Cl)Cl)c2cc(F)cc([N+](=O)[O-])c2O)c1O [Compound 16],"FAECAL EGG COUNT, day 7",[1]; single dose 12.5 mg/kg,10 Eggs/g faeces
same,"FAECAL EGG COUNT, day 14",[1]; single dose 12.5 mg/kg,10 Eggs/g faeces
same,POST MORTEM RESULT No. of adult fluke,[1]; single dose 12.5 mg/kg,0
CC(=O)Oc1c(C(=C(Cl)Cl)c2cc(Cl)cc([N+](=O)[O-])c2OC(C)=O)cc(Cl)cc1[N+](=O)[O-] [Compound 17],"FAECAL EGG COUNT, day 7",[1]; single dose 12.0 mg/kg,110 Eggs/g faeces
same,"FAECAL EGG COUNT, day 14",[1]; single dose 12.0 mg/kg,0 Eggs/g faeces
same,POST MORTEM RESULT No. of adult fluke,[1]; single dose 12.0 mg/kg,0
COC(=O)Oc1c(C(=C(Cl)Cl)c2cc(Cl)cc([N+](=O)[O-])c2OC(=O)OC)cc(Cl)cc1[N+](=O)[O-] [Compound 18],"FAECAL EGG COUNT, day 7",[1]; single dose 12.0 mg/kg,60 Eggs/g faeces
same,"FAECAL EGG COUNT, day 14",[1]; single dose 12.0 mg/kg,0 Eggs/g faeces
same,POST MORTEM RESULT No. of adult fluke,[1]; single dose 12.0 mg/kg,1
"CC(C)(c1cc(F)cc([N+](=O)[O-])c1O)c1cc(F)cc([N+](=O)[O-])c1O [Compound 19, 2,2'-Isopropylidene bis(4-fluoro-6-nitrophenol)]","FAECAL EGG COUNT, day 7",[1]; single dose 12.5 mg/kg,210 Eggs/g faeces
same,"FAECAL EGG COUNT, day 14",[1]; single dose 12.5 mg/kg,180 Eggs/g faeces
"CC(C)(c1cc(F)cc([N+](=O)[O-])c1O)c1cc(Cl)cc([N+](=O)[O-])c1O [Compound 20, 2-(5-chloro-2-hydroxy-3-nitrophenyl)-2-(5-fluoro-2-hydroxy-3-nitrophenyl)propane]","FAECAL EGG COUNT, day 7",[1]; single dose 12.5 mg/kg,400 Eggs/g faeces
same,"FAECAL EGG COUNT, day 14",[1]; single dose 12.5 mg/kg,140 Eggs/g faeces
"CC(C)COC(c1cc(Cl)cc([N+](=O)[O-])c1O)c1cc(Cl)cc([N+](=O)[O-])c1O [Compound 24, bis(5-chloro-2-hydroxy-3-nitrophenyl)methyl isobutyl ether]","FAECAL EGG COUNT, day 7",[1]; single dose 6.0 mg/kg,20 Eggs/g faeces
same,"FAECAL EGG COUNT, day 14",[1]; single dose 6.0 mg/kg,10 Eggs/g faeces
same,POST MORTEM RESULT No. of adult fluke,[1]; single dose 6.0 mg/kg,0
CCOC(c1cc(Cl)cc([N+](=O)[O-])c1O)c1cc(Cl)cc([N+](=O)[O-])c1O [Compound 26],"FAECAL EGG COUNT, day 7",[1]; single dose 6.0 mg/kg,130 Eggs/g faeces
same,"FAECAL EGG COUNT, day 14",[1]; single dose 6.0 mg/kg,10 Eggs/g faeces
same,POST MORTEM RESULT No. of adult fluke,[1]; single dose 6.0 mg/kg,0
CC(C)SC(c1cc(Cl)cc([N+](=O)[O-])c1O)c1cc(Cl)cc([N+](=O)[O-])c1O [Compound 30],"FAECAL EGG COUNT, day 7",[1]; single dose 12.0 mg/kg,10 Eggs/g faeces
same,"FAECAL EGG COUNT, day 14",[1]; single dose 12.0 mg/kg,0 Eggs/g faeces
same,POST MORTEM RESULT No. of adult fluke,[1]; single dose 12.0 mg/kg,1
O=[N+]([O-])c1cc(Cl)cc(C(Oc2ccccc2)c2cc(Cl)cc([N+](=O)[O-])c2O)c1O [Compound 32],minimal effective concentration,live Fasciola hepatica,5 µg/mL
N#Cc1ccc(OC(c2cc(Cl)cc([N+](=O)[O-])c2O)c2cc(Cl)cc([N+](=O)[O-])c2O)cc1 [Compound 33],minimal effective concentration,live Fasciola hepatica,5 µg/mL
